Assays:
Serine protease 1 = target: T1, Serine protease 1 (Bos taurus, UniProt P00760); experiment: Binding affinity against bovine trypsin
T1 sequence (P00760 whole entry): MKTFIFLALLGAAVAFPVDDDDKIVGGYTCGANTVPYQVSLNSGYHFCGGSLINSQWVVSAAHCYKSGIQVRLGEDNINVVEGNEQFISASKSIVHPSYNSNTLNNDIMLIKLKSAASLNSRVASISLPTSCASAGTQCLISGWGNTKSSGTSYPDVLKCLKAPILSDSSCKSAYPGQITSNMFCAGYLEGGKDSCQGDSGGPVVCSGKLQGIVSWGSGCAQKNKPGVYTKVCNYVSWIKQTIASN

[1] = Compound was evaluated for its pharmacokinetic parameter maximum plasma concentration (Cmax) after oral administration to rats; type: ADME, organism-based; design: route oral; conditions: rat
Prothrombin = Prothrombin (Homo sapiens, UniProt P00734); experiment: Binding affinity against human thrombin
[2] = Compound was evaluated for its pharmacokinetic parameter maximum area under curve AUCmax; type: ADME, organism-based; design: time AUCmax; conditions: rat, in vivo
Rattus norvegicus [3] = experiment: Compound was evaluated for its ability to inhibit thrombus formation in rat model of venous thrombosis at a dose 0.5 mg/kg; conditions: read-out: Inhibition
Rattus norvegicus [4] = experiment: Compound was evaluated for its ability to inhibit thrombus formation in rat model of venous thrombosis at a dose 1 mg/kg; conditions: read-out: Inhibition
Coagulation factor X [5] = target: T2, Coagulation factor X (Homo sapiens, UniProt P00742); experiment: Binding affinity for human Coagulation factor Xa; Inactive
Coagulation factor X [6] = target: T2, Coagulation factor X; experiment: Compound was evaluated for the binding affinity against human Coagulation factor Xa
Rattus norvegicus [7] = experiment: Compound at a dose 5 mg/kg was administered intravenously and evaluated for its ability to inhibit thrombus formation in rat model of venous thrombosis; value ranges from 30-67%; type: functional; conditions: route intravenous
Rattus norvegicus [8] = experiment: Compound (dose 5 mg/kg) was administered intravenously and evaluated for its ability to inhibit thrombus formation in rat model of venous thrombosis; value ranges from 30-67%; type: functional; conditions: route intravenous
Rattus norvegicus [9] = experiment: Compound at a dose 1 mg/kg was administered intravenously and evaluated for its ability to inhibit thrombus formation in rat model of venous thrombosis; type: functional; conditions: route intravenous
Rattus norvegicus [10] = organism: Rattus norvegicus; experiment: animal or person; conditions: iv, read-out: Inhibition

T2 sequence (P00742 41-179 limits assumed): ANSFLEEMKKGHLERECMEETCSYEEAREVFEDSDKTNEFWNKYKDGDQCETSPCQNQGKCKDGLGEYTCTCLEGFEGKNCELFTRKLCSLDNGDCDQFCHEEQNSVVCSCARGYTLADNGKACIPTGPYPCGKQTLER
T2 sequence (P00742 235-488 limits assumed): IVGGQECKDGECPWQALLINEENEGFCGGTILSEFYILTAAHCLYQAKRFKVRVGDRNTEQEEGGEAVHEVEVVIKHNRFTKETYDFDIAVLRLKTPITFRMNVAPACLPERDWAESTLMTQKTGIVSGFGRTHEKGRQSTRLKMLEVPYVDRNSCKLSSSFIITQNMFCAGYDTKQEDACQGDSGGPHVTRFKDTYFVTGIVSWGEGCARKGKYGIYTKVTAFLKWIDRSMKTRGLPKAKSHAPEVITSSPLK

In the case of N=C(N)c1ccc(CNC(=O)[C@@H]2CCCN2C(=O)[C@H](NS(=O)(=O)NC2CCCCC2)C(c2ccccc2)c2ccccc2)cc1.O=C(O)C(F)(F)F, the Ki (Serine protease 1) is reported as 0.25 nM, the Cmax [1] is reported as < 300 ng/mL and the Ki (Prothrombin) is reported as 0.003 nM.

For N=C(N)c1ccc(CNC(=O)[C@@H]2CCCN2C(=O)[C@H](NS(=O)(=O)Cc2ccccc2)C(c2ccccc2)c2ccccc2)cc1.O=C(O)C(F)(F)F, the Ki (Serine protease 1) was 0.58 nM, the AUC [2] was 68 µg·h/mL and the Cmax [1] was 900 ng/mL. It also gave a Ki (Prothrombin) of 0.005 nM.

Molecule N=C(N)c1ccc(CNC(=O)[C@@H]2CCCN2C(=O)[C@H](NS(N)(=O)=O)C(c2ccccc2)c2ccccc2)cc1.O=C(O)C(F)(F)F has a Ki (Serine protease 1) of 0.3 nM, an AUC [2] of 272 µg·h/mL and a Cmax [1] of 2800 ng/mL. For the same molecule, the inhibition in vivo at 0.5 mg/kg (Rattus norvegicus [3]) was 80%, the inhibition in vivo at 1 mg/kg (Rattus norvegicus [4]) was 100% and the Ki (Prothrombin) was 0.003 nM.

N=C(N)c1ccc(CNC(=O)[C@@H]2CCCN2C(=O)[C@H](NCC(=O)O)C(c2ccccc2)c2ccccc2)cc1.O=C(O)C(F)(F)F showed a Ki (Serine protease 1) of 3 nM, an AUC [2] of 120 µg·h/mL and a Cmax [1] of 1300 ng/mL. The Ki (Prothrombin) was 0.015 nM.

With N=C(N)c1ccc(CNC(=O)[C@@H]2CCCN2C(=O)[C@H](Nc2ccccc2)C(c2ccccc2)c2ccccc2)cc1.O=C(O)C(F)(F)F the Ki (Serine protease 1) was 1.5 nM, the AUC [2] was 53 µg·h/mL and the Cmax [1] was 300 ng/mL.

Work on COP(=O)(N[C@@H](C(=O)N1CCC[C@H]1C(=O)NCc1ccc(C(=N)N)cc1)C(c1ccccc1)c1ccccc1)OC.O=C(O)C(F)(F)F yielded a Ki (Serine protease 1) of 2.9 nM, an AUC [2] of 271 µg·h/mL and a Cmax [1] of 4000 ng/mL. The Ki (Prothrombin) was 0.044 nM.

With N=C(N)c1ccc(CNC(=O)[C@@H]2CCCN2C(=O)[C@H](NS(=O)(=O)O)C(c2ccccc2)c2ccccc2)cc1.O=C(O)C(F)(F)F the Ki (Serine protease 1) was 4.4 nM, the AUC [2] was 35 µg·h/mL and the Cmax [1] was 550 ng/mL. The Ki (Prothrombin) was 0.1 nM.

With COC(=O)N[C@@H](C(=O)N1CCC[C@H]1C(=O)NCc1ccc(C(=N)N)cc1)C(c1ccccc1)c1ccccc1.O=C(O)C(F)(F)F the Ki (Serine protease 1) was 0.31 nM, the AUC [2] was 594 µg·h/mL and the Cmax [1] was 3900 ng/mL. It also gave a Ki (Prothrombin) of 0.036 nM.

In the case of CC(=O)N[C@@H](C(=O)N1CCC[C@H]1C(=O)NCc1ccc(C(=N)N)cc1)C(c1ccccc1)c1ccccc1.O=C(O)C(F)(F)F, the AUC [2] is reported as 244 µg·h/mL, the Cmax [1] is reported as 3000 ng/mL and the Ki (Prothrombin) is reported as 0.16 nM.

For N=C(N)c1ccc(CNC(=O)[C@@H]2CCCN2C(=O)[C@H](N)C(c2ccccc2)c2ccccc2)cc1.O=C(O)C(F)(F)F, the Ki (Serine protease 1) was 2.5 nM, the AUC [2] was 107 µg·h/mL and the Cmax [1] was 1400 ng/mL.

For CC(=O)N[C@@H](C(=O)N1CCC[C@H]1C(=O)NCc1ccc(C(=N)NN)s1)C(c1ccccc1)c1ccccc1, the Ki (Coagulation factor X [5]) was “Not Active” and the Ki (Prothrombin) was 105 nM.

For N=C(NN)c1ccc(CNC(=O)[C@@H]2CCCN2C(=O)[C@H](NCC(=O)O)C(c2ccccc2)c2ccccc2)s1, the Ki (Serine protease 1) was 1100 nM, the Ki (Coagulation factor X [5]) was “Not Active” and the Ki (Prothrombin) was 31 nM.

For CS(=O)(=O)N[C@H](Cc1ccc(Cl)c(Cl)c1)C(=O)N1CCC[C@H]1C(=O)NCc1ccc(C(=N)N)cc1, the Ki (Serine protease 1) was 0.8 nM, the Ki (Coagulation factor X [6]) was 120 nM and the Ki (Prothrombin) was 0.05 nM.

For CS(=O)(=O)N[C@@H](C(=O)N1CCC[C@H]1C(=O)NCc1ccc(CN)s1)C(c1ccccc1)c1ccccc1, the Ki (Serine protease 1) was 85 nM, the inhibition in vivo at 5 mg/kg (Rattus norvegicus [7]) was 30% and the Ki (Coagulation factor X [5]) was “Not Active”.

For CS(=O)(=O)N[C@@H](C(=O)N1CCC[C@H]1C(=O)NCc1cc(CN)cs1)C(c1ccccc1)c1ccccc1, the Ki (Serine protease 1) was 68 nM, the inhibition in vivo at 5 mg/kg (Rattus norvegicus [8]) was 30% and the Ki (Coagulation factor X [5]) was “Not Active”. It also gave a Ki (Prothrombin) of 2.4 nM.

Work on CS(=O)(=O)N[C@@H](C(=O)N1CCC[C@H]1C(=O)NCc1ccc(C(=N)N)cc1)C(c1ccccc1)c1ccccc1 yielded a Ki (Serine protease 1) of 0.7 nM, a Ki (Coagulation factor X [6]) of 300 nM and an AUC [2] of 263 µg·h/mL. The Cmax [1] was 2700 ng/mL, the inhibition in vivo at 1 mg/kg (Rattus norvegicus [9]) was 70% and the Ki (Prothrombin) was 0.003 nM.

For CC(C)(C)OC(=O)N[C@@H](C(=O)N1CCC[C@H]1C(=O)NCc1ccc(C(=N)NN)s1)C(c1ccccc1)c1ccccc1, the Ki (Coagulation factor X [5]) was “Not Active”.

In the case of CS(=O)(=O)N[C@@H](C(=O)N1CCC[C@H]1C(=O)NCc1cc(C(N)=NN)cs1)C(c1ccccc1)c1ccccc1, the Ki (Serine protease 1) is reported as 250 nM, the Ki (Coagulation factor X [6]) is reported as 59000 nM and the Ki (Prothrombin) is reported as 2.2 nM.

With CS(=O)(=O)N[C@@H](C(=O)N1CCC[C@H]1C(=O)NCc1ccc(CN)c(N)c1)C(c1ccccc1)c1ccccc1 the Ki (Serine protease 1) was 11 nM, the Ki (Coagulation factor X [5]) was “Not Active” and the Ki (Prothrombin) was 12 nM.

Molecule CS(=O)(=O)N[C@@H](C(=O)N1CCC[C@H]1C(=O)NCc1ccc(C(=N)N)cc1)C1CCCCC1 has a Ki (Serine protease 1) of 9.9 nM, a Ki (Coagulation factor X [6]) of 5000 nM and a Ki (Prothrombin) of 0.5 nM.

For COC(=O)N[C@@H](C(=O)N1CCC[C@H]1C(=O)NCC#Cc1c[nH]cn1)C(c1ccccc1)c1ccccc1, the Ki (Serine protease 1) was 24000 nM.

With Cc1cc(CNC(=O)[C@@H]2CCCN2C(=O)[C@H](NS(C)(=O)=O)C(c2ccccc2)c2ccccc2)ccc1CN the Ki (Serine protease 1) was 110 nM, the Ki (Coagulation factor X [5]) was “Not Active” and the Ki (Prothrombin) was 32 nM.

With CS(=O)(=O)N[C@@H](C(=O)N1CCC[C@H]1C(=O)NCc1csc(C(=N)NN)c1)C(c1ccccc1)c1ccccc1 the Ki (Serine protease 1) was 540 nM, the Ki (Coagulation factor X [5]) was “Not Active” and the Ki (Prothrombin) was 1.8 nM.

In the case of CS(=O)(=O)N[C@@H](C(=O)N1CCC[C@H]1C(=O)NCc1ccc(CN)nc1)C(c1ccccc1)c1ccccc1, the Ki (Serine protease 1) is reported as 220 nM, the Ki (Coagulation factor X [5]) is reported as “Not Active” and the inhibition in vivo at 5 mg/kg (Rattus norvegicus [10]) is reported as 30%. It also gave a Ki (Prothrombin) of 6 nM.

In the case of CS(=O)(=O)N[C@@H](C(=O)N1CCC[C@H]1C(=O)NCc1ccc(/C(N)=N/N)s1)C(c1ccccc1)c1ccccc1, the Ki (Serine protease 1) is reported as 12 nM and the Ki (Coagulation factor X [6]) is reported as 193 nM.

Molecule CS(=O)(=O)N[C@H](CC1CCCCC1)C(=O)N1CCC[C@H]1C(=O)NCc1ccc(C(=N)N)cc1 has a Ki (Serine protease 1) of 1.3 nM, a Ki (Coagulation factor X [6]) of 200 nM and a Ki (Prothrombin) of 0.02 nM.

With CS(=O)(=O)N[C@@H](C(=O)N1CCC[C@H]1C(=O)NCc1ccc(CN)cc1)C(c1ccccc1)c1ccccc1 the Ki (Serine protease 1) was 9.9 nM, the Ki (Coagulation factor X [5]) was “Not Active” and the inhibition in vivo at 5 mg/kg (Rattus norvegicus [10]) was 30%. It also gave a Ki (Prothrombin) of 4 nM.

In the case of CS(=O)(=O)N[C@@H](C(=O)N1CCC[C@H]1C(=O)NCc1ccc(C(=N)N)s1)C(c1ccccc1)c1ccccc1, the Ki (Serine protease 1) is reported as 0.6 nM, the Ki (Coagulation factor X [6]) is reported as 360 nM and the Ki (Prothrombin) is reported as 0.005 nM.

CS(=O)(=O)N[C@@H](C(=O)N1CCC[C@H]1C(=O)NCc1csc(CN)c1)C(c1ccccc1)c1ccccc1 gave a Ki (Serine protease 1) of 606 nM, a Ki (Coagulation factor X [6]) of 100000 nM and an inhibition in vivo at 5 mg/kg (Rattus norvegicus [10]) of 30%.

With CS(=O)(=O)N[C@@H](C(=O)N1CCC[C@H]1C(=O)NCc1ccc(C(=N)NN)cc1)C(c1ccccc1)c1ccccc1 the Ki (Serine protease 1) was 150 nM, the Ki (Coagulation factor X [5]) was “Not Active” and the Ki (Prothrombin) was 47 nM.

From ChEMBL document CHEMBL1135262, “Noncovalent tripeptidic thrombin inhibitors incorporating amidrazone, amine and amidine functions at P1” (Bioorg Med Chem Lett, 2002)
